Active and inactive are the calls of the source. The rule behind the calls is not given here.

The test system of data set [1] is J774.A1. As to the kind of experiment: Inhibition of nitric oxide production in LPS/IFNgamma-stimulated mouse J774A1 cells assessed as nitrites level at 13 uM by Griess method (reference value: 16.5 +/- 1.4 uM). It is filed as functional.
The nature of data set [2]: Cytotoxicity against LPS/IFNgamma-stimulated mouse J774A1 cells assessed as cell viability at 26 uM after 48 hrs by MTT method (reference value: 100 +/- 1.1%). To be noted: read-out: Activity. In kind it is cell-based, J774.A1. On the technique in general: Tetrazolium assays rely on reduction of a dye to a coloured formazan, in cell work by metabolically active cells.

Data set [3] has as its system RAW264.7. As to the kind of experiment: Inhibition of nitric oxide production in LPS/IFNgamma-stimulated mouse RAW264.7 cells assessed as nitrites level at 26 uM by Griess method (reference value: 6.4 +/- 0.5 uM). It is filed as functional. In general terms: Griess reagent forms a coloured azo dye with nitrite.
Data set [4] in a line: Cytotoxicity against LPS/IFNgamma-stimulated mouse RAW264.7 cells assessed as cell viability at 6.5 uM after 48 hrs by MTT method (reference value: 100 +/- 1.8%). It is filed as cell-based. As to conditions: LPS/IFNgamma-stimulated RAW264.7 cells, read-out: Activity.
The nature of data set [5]: Cytotoxicity against LPS/IFNgamma-stimulated mouse J774A1 cells assessed as cell viability at 6.5 uM after 48 hrs by MTT method (reference value: 100 +/- 1.1%). As to conditions: read-out: Activity. In kind it is cell-based, J774.A1.
Data set [6] in a line: Cytotoxicity against LPS/IFNgamma-stimulated mouse RAW264.7 cells assessed as cell viability at 26 uM after 48 hrs by MTT method (reference value: 100 +/- 1.8%). To be noted: LPS/IFNgamma-stimulated RAW264.7 cells, read-out: Activity. In kind it is cell-based.
The subject of data set [7] is J774.A1. The experiment in a line: Inhibition of nitric oxide production in LPS/IFNgamma-stimulated mouse J774A1 cells assessed as nitrites level at 26 uM by Griess method (reference value: 16.5 +/- 1.4 uM). It is filed as functional.
Data set [8] has as its system J774.A1. As to the kind of experiment: Inhibition of nitric oxide production in LPS/IFNgamma-stimulated mouse J774A1 cells assessed as nitrites level at 6.5 uM by Griess method (reference value: 16.5 +/- 1.4 uM). It is filed as functional.
The nature of data set [9]: Cytotoxicity against LPS/IFNgamma-stimulated mouse J774A1 cells assessed as cell viability at 13 uM after 48 hrs by MTT method (reference value: 100 +/- 1.1%). In kind it is cell-based, J774.A1. As to conditions: read-out: Activity.
Data set [10] relates to RAW264.7. The experiment in a line: Inhibition of nitric oxide production in LPS/IFNgamma-stimulated mouse RAW264.7 cells assessed as nitrites level at 6.5 uM by Griess method (reference value: 6.4 +/- 0.5 uM). In kind it is functional.
For data set [11], the system named is RAW264.7. As to the kind of experiment: Inhibition of nitric oxide production in LPS/IFNgamma-stimulated mouse RAW264.7 cells assessed as nitrites level at 13 uM by Griess method (reference value: 6.4 +/- 0.5 uM). In kind it is functional.
Data set [12] in a line: Cytotoxicity against LPS/IFNgamma-stimulated mouse RAW264.7 cells assessed as cell viability at 13 uM after 48 hrs by MTT method (reference value: 100 +/- 1.8%). In kind it is cell-based. To be noted: LPS/IFNgamma-stimulated RAW264.7 cells, read-out: Activity.
Data set [13] relates to J774.A1. The experiment in a line: Inhibition of TNFalpha production in LPS/IFNgamma-stimulated mouse J774A1 cells assessed as TNFalpha level at 6.5 uM by ELISA method (reference value: 89.2 +/- 17.1 pg/mL). In kind it is functional. For orientation: ELISA stands for enzyme-linked immunosorbent assay.
The subject of data set [14] is RAW264.7. As to the kind of experiment: Inhibition of TNFalpha production in LPS/IFNgamma-stimulated mouse RAW264.7 cells assessed as TNFalpha level at 6.5 uM by ELISA method. It is filed as functional, cell-based.

Turning to `O=c1c(-c2ccc(O)cc2)coc2cc(O)cc(O)c12` [GENISTEIN], the Activity in the data set on J774.A1 [1] came to 13.8 µM; in the data set on RAW264.7 [3], 6.1 µM; in the data set on J774.A1 [7], 14.5 µM; in the data set on J774.A1 [8], 13.4 µM; with RAW264.7 [10] it was 6.3 µM; with RAW264.7 [11], 6.3 µM. Also, the viability at 48 h, 26 µM in [2] is 110%; in [6] it was 108%. Also, the viability at 48 h, 6.5 µM in [4] is 128%; in data set [5], 112%. Moreover, the viability at 48 h, 13 µM in data set [9] was determined as 104%; in data set [12], 103%. Besides, the inhibition result in the data set on J774.A1 [13] is “inactive”.

Turning to `CC1(C)O[C@H]2[C@@H](O1)[C@@H](COc1ccc(-c3coc4cc(OC[C@H]5O[C@@H]6OC(C)(C)O[C@@H]6[C@H]6OC(C)(C)O[C@H]65)cc(O)c4c3=O)cc1)O[C@@H]1OC(C)(C)O[C@@H]12`, the Activity in the data set with J774.A1 [1] was found to be 11.8 µM; in the data set with RAW264.7 [3], 2.4 µM; in the data set with J774.A1 [7] it was 12.3 µM; in the data set on J774.A1 [8], 9.8 µM; in the data set with RAW264.7 [10] it was 2.6 µM; with RAW264.7 [11], 2.7 µM. Moreover, the viability at 48 h, 26 µM was determined as 83.6% in data set [2] and 94.4% in data set [6]. Moreover, the figures for the viability at 48 h, 6.5 µM in data set [4] and in [5] were 98.9% and 89.7%, respectively. The inhibition result with RAW264.7 [14] and with J774.A1 [13] was “inactive” throughout. Also, the viability at 48 h, 13 µM is 87.3% in data set [9] and 89.4% in [12].

With `CC1(C)O[C@H]2[C@@H](O1)[C@@H](COc1cc(O)c3c(=O)c(-c4ccc(O)cc4)coc3c1)O[C@@H]1OC(C)(C)O[C@@H]12`, the Activity in the data set with J774.A1 [1] came out at 12.8 µM; with RAW264.7 [3] it was 3.1 µM; with J774.A1 [7], 0.7 µM; in the data set on J774.A1 [8] it was 17.7 µM; in the data set with RAW264.7 [10] it was 2.4 µM; in the data set with RAW264.7 [11] it was 2.5 µM. Also, the values for the viability at 48 h, 26 µM in [2] and in data set [6] were 30.3% and 71.3%, respectively. Moreover, the viability at 48 h, 6.5 µM was found to be 87.6% in data set [4] and 102% in data set [5]. For the same compound, the inhibition result in the data set with RAW264.7 [14] and in the data set with J774.A1 [13] was “inactive” each time. Further, the values for the viability at 48 h, 13 µM in [9] and in data set [12] were 85.5% and 88.1%, respectively.

On to `CO[C@H]1O[C@H](COc2ccc(-c3coc4cc(OC[C@H]5O[C@H](OC)[C@H](O)[C@@H](O)[C@@H]5O)cc(O)c4c3=O)cc2)[C@@H](O)[C@H](O)[C@H]1O`, for which the Activity in the data set on J774.A1 [1] is 9.1 µM; in the data set with RAW264.7 [3] it was 0 µM; with J774.A1 [7], 8.5 µM; in the data set on J774.A1 [8] it was 8.7 µM; in the data set with RAW264.7 [10], 0 µM; in the data set on RAW264.7 [11], 0 µM. Further, the viability at 48 h, 26 µM in data set [2] stood at 94.8%; in data set [6] it was 92.2%. Besides, the viability at 48 h, 6.5 µM in [4] was 93.6%; in data set [5] it was 99.9%. Besides, the inhibition entry with RAW264.7 [14] and in the data set with J774.A1 [13] was “inactive” in each case. For the same compound, the values for the viability at 48 h, 13 µM in data set [9] and in data set [12] were 96.6% and 99.2%, respectively.

For `CO[C@H]1O[C@H](COc2cc(O)c3c(=O)c(-c4ccc(O)cc4)coc3c2)[C@@H](OC(C)=O)[C@H](OC(C)=O)[C@H]1OC(C)=O`, the Activity worked out at 13.1 µM with J774.A1 [1]; 2.4 µM with RAW264.7 [3]; 10.4 µM in the data set with J774.A1 [7]; 12.7 µM in the data set on J774.A1 [8]; 2.1 µM in the data set with RAW264.7 [10]; 4.2 µM in the data set with RAW264.7 [11]. Besides, the Activity in the data set on J774.A1 [13] was 51.7 pg/mL. For the same compound, the figures for the viability at 48 h, 26 µM in data set [2] and in data set [6] were 87.4% and 103%, respectively. Besides, the viability at 48 h, 6.5 µM in [4] was 103%; in [5], 94.7%. Further, in the data set with RAW264.7 [14], the inhibition entry is “inactive”. The viability at 48 h, 13 µM in data set [9] was 92.7%; in data set [12], 104%.

In the case of `O=c1c(-c2ccc(O)cc2)coc2cc(OC[C@H]3O[C@H](O)[C@H](O)[C@@H](O)[C@H]3O)cc(O)c12`, the Activity in the data set on J774.A1 [1] worked out at 10.9 µM; in the data set with RAW264.7 [3], 0 µM; in the data set with J774.A1 [7] it was 9.1 µM; in the data set on J774.A1 [8] it was 9.7 µM; with RAW264.7 [10], 1.4 µM; in the data set on RAW264.7 [11], 0 µM. Moreover, in the data set on J774.A1 [13], the Activity came out at 38.3 pg/mL. Further, the viability at 48 h, 26 µM in [2] came to 88.9%; in data set [6], 95.8%. Further, the viability at 48 h, 6.5 µM in data set [4] was 95.9%; in data set [5], 93.6%. In addition, in the data set with RAW264.7 [14], the inhibition result is “inactive”. The values for the viability at 48 h, 13 µM in data set [9] and in [12] were 95.2% and 98.2%, respectively.

Turning to `CO[C@H]1O[C@H](COc2cc(O)c3c(=O)c(-c4ccc(O)cc4)coc3c2)[C@@H](O)[C@H](O)[C@H]1O`, the Activity turned out to be 11.3 µM in the data set on J774.A1 [1]; 1.7 µM with RAW264.7 [3]; 14.3 µM with J774.A1 [7]; 7.2 µM in the data set with J774.A1 [8]; 1.4 µM in the data set on RAW264.7 [10]; 1 µM in the data set with RAW264.7 [11]. Moreover, the viability at 48 h, 26 µM in data set [2] came to 44.9%; in [6] it was 78.3%. Besides, the viability at 48 h, 6.5 µM was found to be 91.3% in data set [4] and 68.1% in data set [5]. The inhibition result in the data set with RAW264.7 [14] and with J774.A1 [13] was “inactive” in each case. The viability at 48 h, 13 µM amounted to 64.3% in [9] and 88.1% in data set [12].

With `CO[C@H]1O[C@H](COc2ccc(-c3coc4cc(OC[C@H]5O[C@H](OC)[C@H](OC(C)=O)[C@@H](OC(C)=O)[C@@H]5OC(C)=O)cc(O)c4c3=O)cc2)[C@@H](OC(C)=O)[C@H](OC(C)=O)[C@H]1OC(C)=O`, the Activity with J774.A1 [1] stood at 12.1 µM; in the data set with RAW264.7 [3] it was 4.1 µM; in the data set with J774.A1 [7], 11.7 µM; in the data set on J774.A1 [8] it was 11.5 µM; in the data set with RAW264.7 [10] it was 1.9 µM; in the data set on RAW264.7 [11], 2.5 µM. The Activity with J774.A1 [13] was found to be 51.9 pg/mL. The figures for the viability at 48 h, 26 µM in [2] and in data set [6] were 87.9% and 101%, respectively. In addition, the viability at 48 h, 6.5 µM in data set [4] amounted to 103%; in [5] it was 82.1%. Besides, the inhibition entry in the data set with RAW264.7 [14] is “inactive”. Further, the viability at 48 h, 13 µM in [9] was determined as 86.7%; in data set [12], 98.4%.
